Literature values, collected in US20110224196A1, “TREATMENT OF O[…] APNEA SYNDROME WITH A COMBINATION OF A CARBONIC ANHYDRASE INHIBITOR AND AN […] AGENT” (Vivus, Inc., priority 2010, published 2011).

NC(=O)C[S+]([O-])C(c1ccccc1)c1ccccc1 (stereo not shown) [Modafinil, 2-[(diphenylmethy)sulfinyl]-N-acetamide]
solubility in acetone (acetone): sparingly or slightly soluble | solubility in cyclohexane (cyclohexane): insoluble | solubility in methanol (methanol): sparingly or slightly soluble | solubility in water (water): insoluble
